Measured values taken from patent publication US20050176826A1, “Use of asc-1 inhibitors to treat neurological and psychiatric disorders” (H. Lundbeck A/S, priority 2002, published 2005).

What was measured:
[1] = target: T1, D-serine uptake in rat cerebellar synaptosomes (Rattus norvegicus, UniProt P63116); assay: [3H]D-serine uptake in rat cerebellar synaptosomes; type: biochemical
T1 construct: from tissue; host or cells: rat cerebellar synaptosomes
T1 sequence (P63116 1-530): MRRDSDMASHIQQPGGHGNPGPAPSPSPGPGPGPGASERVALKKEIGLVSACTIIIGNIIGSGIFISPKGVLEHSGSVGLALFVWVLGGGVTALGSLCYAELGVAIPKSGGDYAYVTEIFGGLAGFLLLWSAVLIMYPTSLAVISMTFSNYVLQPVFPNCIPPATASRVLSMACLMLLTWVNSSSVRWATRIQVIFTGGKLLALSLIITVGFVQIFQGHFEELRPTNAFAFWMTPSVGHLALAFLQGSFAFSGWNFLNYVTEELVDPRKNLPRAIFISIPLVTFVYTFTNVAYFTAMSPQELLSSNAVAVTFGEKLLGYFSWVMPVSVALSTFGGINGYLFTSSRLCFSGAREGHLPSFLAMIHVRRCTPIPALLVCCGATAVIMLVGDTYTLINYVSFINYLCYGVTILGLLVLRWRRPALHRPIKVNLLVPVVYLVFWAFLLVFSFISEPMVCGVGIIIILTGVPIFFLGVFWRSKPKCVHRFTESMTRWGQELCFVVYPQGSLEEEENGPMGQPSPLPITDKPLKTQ
T1 sequence (Q794F9 1-527 partner): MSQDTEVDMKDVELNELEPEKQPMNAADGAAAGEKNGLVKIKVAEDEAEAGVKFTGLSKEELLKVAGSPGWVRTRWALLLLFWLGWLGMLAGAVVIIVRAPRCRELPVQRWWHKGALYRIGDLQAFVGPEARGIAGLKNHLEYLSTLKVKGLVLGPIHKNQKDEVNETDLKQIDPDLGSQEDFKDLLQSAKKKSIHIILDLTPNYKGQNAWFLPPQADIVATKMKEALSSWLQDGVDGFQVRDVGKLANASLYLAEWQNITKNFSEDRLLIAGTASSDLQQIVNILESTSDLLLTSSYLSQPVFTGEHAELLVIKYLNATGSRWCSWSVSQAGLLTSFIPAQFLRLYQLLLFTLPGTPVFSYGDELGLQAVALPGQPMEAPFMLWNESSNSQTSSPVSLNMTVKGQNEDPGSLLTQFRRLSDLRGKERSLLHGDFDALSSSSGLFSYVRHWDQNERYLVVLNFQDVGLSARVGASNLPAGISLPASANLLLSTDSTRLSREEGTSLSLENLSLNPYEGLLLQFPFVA

[2] = target: noradrenaline (NA) uptake (Rattus norvegicus, UniProt Q63380); assay: [3H]noradrenalin uptake into rat cortical synaptosomes; type: biochemical; settings: read-out: Ki, block of noradrenaline transport
noradrenaline (NA) uptake, sequence (Q63380 1-617): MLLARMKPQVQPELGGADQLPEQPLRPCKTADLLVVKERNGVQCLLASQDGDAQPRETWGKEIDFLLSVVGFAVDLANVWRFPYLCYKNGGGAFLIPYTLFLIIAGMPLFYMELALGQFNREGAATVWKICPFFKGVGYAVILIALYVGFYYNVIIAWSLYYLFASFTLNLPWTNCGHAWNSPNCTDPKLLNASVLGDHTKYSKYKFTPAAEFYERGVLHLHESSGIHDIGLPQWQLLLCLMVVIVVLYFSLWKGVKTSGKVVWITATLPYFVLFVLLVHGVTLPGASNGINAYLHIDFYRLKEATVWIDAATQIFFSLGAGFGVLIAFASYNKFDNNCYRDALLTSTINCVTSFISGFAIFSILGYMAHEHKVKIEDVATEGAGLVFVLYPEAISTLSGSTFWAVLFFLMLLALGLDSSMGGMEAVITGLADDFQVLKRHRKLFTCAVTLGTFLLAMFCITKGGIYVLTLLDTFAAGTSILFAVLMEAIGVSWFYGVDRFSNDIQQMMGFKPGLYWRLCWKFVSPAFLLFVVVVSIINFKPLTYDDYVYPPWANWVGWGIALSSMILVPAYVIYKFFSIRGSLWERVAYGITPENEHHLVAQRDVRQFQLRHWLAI
Description: (§1) Inhibition of serotonin (5-HT), dopamine (DA) and noradrenaline (NA) uptake in vitro was measured in rat brain synaptosomes using a modification of a previously described protocol (Bøgesø et al., J Med Chem 1985, 28, 1817-1828). In brief, tritium labelled amines were used to measure uptake into synaptosomes from whole rat brain (excluding cerebellum) ([^3H]serotonin), rat striatal synaptosomes ([^3H]dopamine) or into rat cortical synaptosomes [^3H]noradrenalin. The dissected rat brain regions were homogenized in 0.40 M sucrose supplemented with 1 mM nialamid and centrifuged at 1000×g for 10 min. The supernatants were further centrifuged for 30 min at 20.000×g, 4° C. and resuspended in Krebs-Ringer buffer, pH 7.4 supplemented with 0.2 g/l ascorbic acid. Test compounds and membranes were added in 96 well plates and the incubation was started by adding either 10 nM [^3H]serotonin, 12.5 nM [^3H]dopamine or 10 nM [^3H]noradrenalin for 15 min at 37° C. except for [^3 H]dopamine uptake (5 min at 20° C.). Non-specific uptake was defined as uptake in the presence of 10 μM citalopram, 100 μM benttropin or 20 μM talsupram, respectively and accounted for 5-10% of total uptake. Samples were filtered over Whatman GF/C filters and the IC50's were estimated using non-linear regression analysis from at least 8 points dose-response curves with triplicate determinations.

dopamine (DA) uptake = target: T2, dopamine (DA) uptake (Rattus norvegicus, UniProt P23977); assay: [3H]dopamine uptake into rat striatal synaptosomes; type: biochemical
T2 construct: from tissue; host or cells: rat striatal synaptosomes
T2 sequence (P23977 whole entry): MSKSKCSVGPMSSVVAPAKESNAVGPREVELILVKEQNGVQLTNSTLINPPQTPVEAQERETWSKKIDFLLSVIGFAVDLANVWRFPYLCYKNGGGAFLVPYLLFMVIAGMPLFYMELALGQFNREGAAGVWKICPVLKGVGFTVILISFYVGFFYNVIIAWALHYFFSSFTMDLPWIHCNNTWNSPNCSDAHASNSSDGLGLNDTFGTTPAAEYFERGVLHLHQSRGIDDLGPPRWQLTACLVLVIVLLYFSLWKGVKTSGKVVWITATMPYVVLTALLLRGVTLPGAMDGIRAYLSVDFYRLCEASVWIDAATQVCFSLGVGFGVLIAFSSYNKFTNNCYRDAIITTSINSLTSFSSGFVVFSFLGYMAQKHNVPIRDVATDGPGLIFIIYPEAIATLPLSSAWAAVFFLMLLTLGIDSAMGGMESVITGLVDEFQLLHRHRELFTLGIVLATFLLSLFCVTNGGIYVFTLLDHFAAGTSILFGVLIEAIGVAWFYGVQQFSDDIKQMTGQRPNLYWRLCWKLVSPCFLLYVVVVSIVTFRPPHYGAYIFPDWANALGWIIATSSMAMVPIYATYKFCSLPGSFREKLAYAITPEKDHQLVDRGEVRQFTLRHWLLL
Description: as §1

[3] = tested on: rat brain (ventral hippocampus) extracellular amino acids; assay: Microdialysis in rat ventral hippocampus, amino acid levels in dialysate; type: in vivo; settings: 1 mM infused via microdialysis probe into ventral hippocampus, 140 min (FIG. 1)
From the text: Rats (male wistar) were anaesthetized and intracerebral guide cannulas (CMA/12) were stereotaxically implanted into the brain positioning the dialysis probe tip in the ventral hippocampus (co-ordinates 5.6 mm […] to bregma, lateral −5.0 mm, 7.0 mm ventral to dura). The rats were allowed to recover from surgery for at least 2 days. On the day of the experiment, a microdialysis probe (CMA/12, 0.5 mm diameter, 3 mm length) was inserted through the guide cannula. The probes were connected via a dual channel swivel to a microinjection pump. Perfusion of the microdialysis probe with filtered Ringer solution (145 mM NaCl, 3 mM KCl, 1 mM MgCl2, 1.2 mM CaCl2) was begun shortly before insertion of the probe into the brain and continued for the duration of the experiment at a constant flow of 1 μl/min. After 165 min of stabilization, the experiments were initiated. A 20 min sampling regime was used throughout the experimental period. Time points were corrected for lag time of the perfusate from the microdialysis site to the probe outlet. The compound, S-methyl-L-cysteine (Sigma-Aldrich, St. Louis, USA) was dissolved in filtered Ringer solution (in 1 mM concentration) and was locally infused into the ventral hippocampus by reverse dialysis for 140 min (FIG. 1). After the experiments, the rats were sacrificed by decapitation. The brains were removed, frozen and sectioned (20 μm), and the position of the probes was verified. The concentrations of amino acids in the dialysates were analyzed by means of HPLC with fluorescence detection after precolumn online derivatisation with o-phatalaldehyde. The system consisted of a Hypersil AA-ODS column (5 μm, 2.1×200 mm, Agilent) with a Agilent 1100 fluoresence detector (excitation, 266-340 nm; emission, 305-340 nm). Mobile phases consisted of A: 20 mM sodium acetate, 0.018% triethylamine, 0.3% tetrahydrofuran, pH 7.2. B: 20 mM sodium acetate, 40% acetonitrile and 40% methanol, pH 7.2. The oven temperature was set at 40° C. and flow rate was 0.45 ml/min. Data were collected and analysed using ChemStation software (Agilent) after calibration with a range of standard amino acid solutions (0.1-10 μM). The mean value of 3 consecutive samples immediately preceding compound administration served as the basal level for each experiment and data were converted to percentage of basal (mean basal pre-injection values normalized to 100%).

CSCC(N)C(=O)O (stereo in doubt) [(S)-methyl-L-cysteine]
inhibition of D-serine uptake in rat cerebellar synaptosomes (in words) [1]: potent and selective inhibitor | Ki [2]: > 1 mM | Ki (dopamine (DA) uptake): > 1 mM | level of alanine in rat brain dialysate [3]: marked increase | level of aspartate in rat brain dialysate [3]: not affected | level of glutamate in rat brain dialysate [3]: not affected | level of glycine in rat brain dialysate [3]: marked increase | level of serine in rat brain dialysate [3]: marked increase | level of threonine in rat brain dialysate [3]: marked increase
